For four compounds, IC50 results are on record in patent US12398154B2, “Azaquinazoline pan-KRas inhibitors” (Mirati Therapeutics, Inc., priority 2020, dated 2025).

One test deals with T1, KRas G13D (Homo sapiens, UniProt P01116, G13D).
T1 construct: Biotinylated KRas (corresponding to amino acids 1-169, produced at Accelegan Inc.); biotin (biotinylated); purchased Accelegan Inc
The test is described as follows: KRas binding assay (TR-FRET displacement). In general terms: Time-resolved FRET reads energy transfer from a long-lived donor to a nearby acceptor.

The next test deals with T2, KRas Q61H (Homo sapiens, UniProt P01116, Q61H).
T2 construct: Biotinylated KRas (corresponding to amino acids 1-169, produced at Accelegan Inc.); biotin (biotinylated); purchased Accelegan Inc
Kind of test: KRas binding assay (TR-FRET displacement).

For test [1], the system named is phospho-ERK in A549 (G12S) cells. The test is described as follows: Inhibition of KRas-mediated phosphorylation of ERK (in-cell western). As to conditions: Homo sapiens, 3 hours compound, phospho-ERK normalized to GAPDH. Format: cell-based. In outline: (§1)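 IC50 came from 4-parameter dose-response fits of phospho-ERK (Thr202/Tyr204)/GAPDH signal, expressed as % DMSO control. Compounds were applied for 3 h at 0.5% DMSO before fixation, methanol permeabilization and antibody imaging by in-cell western.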

Test [2] has as its system phospho-ERK in AsPC-1 (G12D) cells. The description is as above. The test is classed as cell-based. As to conditions: Homo sapiens, ASPC1, 3 h, 3 hours compound, phospho-ERK normalized to GAPDH. In outline:
as §1

For test [3], the system named is phospho-ERK in HCT116 (G13D) cells. Described as above. The test is classed as cell-based. As to conditions: Homo sapiens, HCT-116, 3 hours compound, phospho-ERK normalized to GAPDH. In outline: as §1
The subject of test [4] is phospho-ERK in MKN1 (WTdep) cells. Described as above. The test is classed as cell-based. As to conditions: Homo sapiens, MKN-1, 3 hours compound, phospho-ERK normalized to GAPDH. In outline:
as §1

For test [5], the system named is phospho-ERK in NCI-H358 (G12C) cells. Described as above. The test is classed as cell-based. As to conditions: Homo sapiens, 3 hours compound, phospho-ERK normalized to GAPDH. In outline:
as §1

The subject of test [6] is phospho-ERK in NCI-H460 (Q61H) cells. The test is described as above. As to conditions: Homo sapiens, NCI-H460, 3 h, 3 hours compound, phospho-ERK normalized to GAPDH. The test is classed as cell-based. In outline: as §1
For test [7], the system named is phospho-ERK in NCI-H727 (G12V) cells. The test is described as above. Format: cell-based. As to conditions: Homo sapiens, NCI-H727, 3 h, 3 hours compound, phospho-ERK normalized to GAPDH. In outline:
as §1

Test [8] relates to phospho-ERK in PSN-1 (G12R) cells. The description is as above. The test is classed as cell-based. As to conditions: Homo sapiens, PSN1, 3 hours compound, phospho-ERK normalized to GAPDH. In outline: as §1
The target in a further test is KRas G12D (Homo sapiens, UniProt P01116, G12D). The test is described as follows: biochemical.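 Also: TR-FRET displacement binding assay on KRas, read after a one-hour incubation at room temperature, IC50 fitted from percent-of-control values.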
The target in another test is KRas G12V (Homo sapiens, UniProt P01116, G12V). Kind of test: biochemical.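 Also: KRas binding measured by TR-FRET displacement at room temperature, IC50 fitted from percent of control values.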
A further test addresses KRas G12R (Homo sapiens, UniProt P01116, G12R). The test is described as follows: biochemical.
The next test has as its target KRas G12A (Homo sapiens, UniProt P01116, G12A). The test is described as follows: biochemical.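 Also: binding to KRas measured by TR-FRET displacement after one hour at room temperature, IC50 from a four-parameter fit of percent-of-control values.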
For another test, the target named is KRas G12S (Homo sapiens, UniProt P01116, G12S). Kind of test: biochemical.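 Also: TR-FRET displacement binding to KRas, read after one hour incubation at room temperature, IC50 from four-parameter fit of percent of control.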
In another test the target is KRas G12C (Homo sapiens, UniProt P01116, G12C). Kind of test: biochemical.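 Also: binding to KRas assessed by TR-FRET displacement after one hour incubation at room temperature, potency fitted from percent-of-control values.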
The target of the next test is KRas WT (Homo sapiens, UniProt P01116). Kind of test: biochemical.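 Also: binding to KRas read as TR-FRET displacement after a one-hour room-temperature incubation, IC50 derived from percent-of-control values.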
Chain of KRas WT (P01116 1-169 isoform P01116-2): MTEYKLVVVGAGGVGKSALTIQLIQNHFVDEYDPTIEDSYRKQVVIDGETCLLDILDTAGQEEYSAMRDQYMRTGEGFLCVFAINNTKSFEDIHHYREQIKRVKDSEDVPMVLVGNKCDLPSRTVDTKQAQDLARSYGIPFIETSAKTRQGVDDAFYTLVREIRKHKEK

T2 sequence (P01116 1-169 isoform P01116-2 Q61H): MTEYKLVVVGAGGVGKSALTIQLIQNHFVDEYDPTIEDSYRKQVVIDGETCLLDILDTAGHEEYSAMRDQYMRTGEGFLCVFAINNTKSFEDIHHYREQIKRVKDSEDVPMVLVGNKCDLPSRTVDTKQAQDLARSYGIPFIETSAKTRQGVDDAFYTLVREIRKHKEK
Chain of KRas G12D (P01116 1-169 isoform P01116-2 G12D): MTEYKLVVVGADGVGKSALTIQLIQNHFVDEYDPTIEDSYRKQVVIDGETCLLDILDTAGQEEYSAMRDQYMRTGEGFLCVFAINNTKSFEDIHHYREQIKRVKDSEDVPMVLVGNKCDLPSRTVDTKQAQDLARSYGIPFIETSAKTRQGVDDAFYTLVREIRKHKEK
Chain of KRas G12V (P01116 1-169 isoform P01116-2 G12V): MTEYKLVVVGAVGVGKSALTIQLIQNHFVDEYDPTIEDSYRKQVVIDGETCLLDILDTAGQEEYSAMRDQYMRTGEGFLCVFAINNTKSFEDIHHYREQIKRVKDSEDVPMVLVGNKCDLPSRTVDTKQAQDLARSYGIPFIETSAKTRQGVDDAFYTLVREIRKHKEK
Chain of KRas G12C (P01116 1-169 isoform P01116-2 G12C): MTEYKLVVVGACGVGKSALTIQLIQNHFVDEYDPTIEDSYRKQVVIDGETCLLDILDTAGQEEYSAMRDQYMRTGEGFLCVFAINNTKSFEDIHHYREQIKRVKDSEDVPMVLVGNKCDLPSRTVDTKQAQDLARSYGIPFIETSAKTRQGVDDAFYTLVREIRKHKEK
T1 sequence (P01116 1-169 isoform P01116-2 G13D): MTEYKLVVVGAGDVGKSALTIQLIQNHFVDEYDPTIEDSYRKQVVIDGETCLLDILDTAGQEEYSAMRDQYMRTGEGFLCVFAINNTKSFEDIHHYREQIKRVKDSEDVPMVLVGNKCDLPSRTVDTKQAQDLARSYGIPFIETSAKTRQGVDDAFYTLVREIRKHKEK
Chain of KRas G12S (P01116 1-169 isoform P01116-2 G12S): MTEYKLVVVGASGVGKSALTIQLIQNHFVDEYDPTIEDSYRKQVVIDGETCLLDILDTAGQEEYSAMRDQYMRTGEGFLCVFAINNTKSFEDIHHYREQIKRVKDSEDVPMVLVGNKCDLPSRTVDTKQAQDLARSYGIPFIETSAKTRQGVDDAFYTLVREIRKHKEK
Chain of KRas G12A (P01116 1-169 isoform P01116-2 G12A): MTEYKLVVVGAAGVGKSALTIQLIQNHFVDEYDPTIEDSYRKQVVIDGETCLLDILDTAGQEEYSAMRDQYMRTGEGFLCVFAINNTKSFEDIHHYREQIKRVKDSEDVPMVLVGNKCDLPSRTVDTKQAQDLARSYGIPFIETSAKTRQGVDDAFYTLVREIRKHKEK
Chain of KRas G12R (P01116 1-169 isoform P01116-2 G12R): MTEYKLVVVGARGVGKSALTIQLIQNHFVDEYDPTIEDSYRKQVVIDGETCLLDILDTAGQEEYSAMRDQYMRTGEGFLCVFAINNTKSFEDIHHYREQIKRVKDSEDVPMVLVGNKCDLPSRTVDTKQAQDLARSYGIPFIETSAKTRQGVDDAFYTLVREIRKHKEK

Take `CCc1c(F)ccc2cc(O)cc(-c3ncc4c(N5CCCCC5)nc(OC[C@@]56CCCN5C[C@H](O)C6)nc4c3F)c12` [Example 7]: the IC50 (usually the concentration at which inhibition is half-maximal) at KRas G13D amounted to 3 nM; at KRas Q61H, 3 nM; in test [1] it was 1090 nM; in test [2], 802 nM; in test [3] it was 627 nM; in test [4] it was 32 nM. In addition, the IC50 was 199 nM in test [5]; 416 nM in test [6]; 530 nM in [7]; 3590 nM in test [8]; at most 2 nM on KRas G12D; at most 2 nM on KRas G12V. Also, the IC50 is at most 2 nM at KRas G12R; at most 2 nM against KRas G12A; at most 2 nM at KRas G12S; at most 2 nM on KRas G12C; 3 nM on KRas WT.
For `C#Cc1c(F)ccc2cccc(-c3ncc4c(N5CCC[C@@](C)(O)C5)nc(OCC56CCCN5CCC6)nc4c3F)c12` [Example 14, (R)-1-(7-(8-ethynyl-7-fluoronaphthalen-1-yl)-8-fluoro-2-((hexahydro-1H-pyrrolizin-7a-yl)methoxy)pyrido[4,3-d]pyrimidin-4-yl)-3-methylpiperidin-3-ol], the 50% inhibitory concentration (IC50) is 61 nM on KRas G13D; 80 nM at KRas Q61H; at least 10000 nM in test [1]; 847 nM in test [2]; 1590 nM in [3]; 1380 nM in [4]. In addition, the half-maximal inhibitory concentration (IC50) in test [5] is 725 nM; in [6], at least 10000 nM; in [7], 4580 nM; in test [8], at least 10000 nM; at KRas G12D it was 29 nM; on KRas G12V, 52 nM. Moreover, the half-inhibitory concentration (IC50) against KRas G12R is 109 nM; on KRas G12A it was 58 nM; at KRas G12S, 58 nM; against KRas G12C, 51 nM; at KRas WT, 51 nM.
Take `CCc1c(F)ccc2cccc(-c3ncc4c(N5CCC[C@@](C)(O)C5)nc(OCC56CCCN5CCC6)nc4c3F)c12` [Example 15]: the IC50 on KRas G13D worked out at 42 nM; at KRas Q61H, 52 nM; in test [1] it was 3640 nM; in test [2], 731 nM; in test [3], 5160 nM; in test [4] it was 1260 nM. Moreover, the IC50 in test [5] was 495 nM; in [6], at least 10000 nM; in [7], at least 10000 nM; in test [8], at least 10000 nM; at KRas G12D it was 24 nM; against KRas G12V it was 42 nM. In addition, the half-inhibitory concentration (IC50) at KRas G12R turned out to be 81 nM; against KRas G12A, 38 nM; at KRas G12S, 42 nM; at KRas G12C it was 37 nM; against KRas WT, 41 nM.
For the compound `CCc1c(F)ccc2cc(O)cc(-c3ncc4c(N5CCC[C@@](C)(O)C5)nc(OCC56CCCN5CCC6)nc4c3F)c12` [Example 27], the IC50 was at most 2 nM at KRas G13D; at most 2 nM at KRas Q61H; 300 nM in test [1]; 45 nM in test [2]; 88 nM in [3]; 20 nM in test [4]. Moreover, the half-maximal inhibitory concentration (IC50) in test [5] is 22 nM; in [6], 33 nM; in [7], 232 nM; in [8], 2920 nM; on KRas G12D it was at most 2 nM; at KRas G12V it was at most 2 nM. The IC50 at KRas G12R, against KRas G12A, against KRas G12S, against KRas G12C and against KRas WT was at most 2 nM throughout.
